Experimental findings from US11072634B2, “Inhibitors of transglutaminases” (Zedira GmbH, priority 2016, dated 2021) are described below.

What is called pIC50 is the IC50 on a negative log10 scale, so that one unit is a factor of ten.

pIC50: −log10 of the molar value. Where a SMILES comes first, the peptide text is derived from it. [ ]: non-standard residue; d: D form. The star is where a group is joined. Nle(5,6-dioxo,6-NHMe) = CNC(=O)C(=O)CC[C@H](N)C(=O)O; Isopropoxycarbonyl = CC(C)OC(=O)*; Hyp = O=C(O)[C@@H]1C[C@@H](O)CN1; Tic = O=C(O)[C@@H]1Cc2ccccc2CN1; X8 = CC1(C)CC(CC(=O)*)C(=O)O1; Aib = CC(C)(N)C(=O)O

The assay concerns the target T1, recombinant human tissue transglutaminase (rhTG2) (Homo sapiens, UniProt P21980).
T1 construct: purchased Zedira 1022 (so in the source); T022)
T1 sequence (P21980 1-687): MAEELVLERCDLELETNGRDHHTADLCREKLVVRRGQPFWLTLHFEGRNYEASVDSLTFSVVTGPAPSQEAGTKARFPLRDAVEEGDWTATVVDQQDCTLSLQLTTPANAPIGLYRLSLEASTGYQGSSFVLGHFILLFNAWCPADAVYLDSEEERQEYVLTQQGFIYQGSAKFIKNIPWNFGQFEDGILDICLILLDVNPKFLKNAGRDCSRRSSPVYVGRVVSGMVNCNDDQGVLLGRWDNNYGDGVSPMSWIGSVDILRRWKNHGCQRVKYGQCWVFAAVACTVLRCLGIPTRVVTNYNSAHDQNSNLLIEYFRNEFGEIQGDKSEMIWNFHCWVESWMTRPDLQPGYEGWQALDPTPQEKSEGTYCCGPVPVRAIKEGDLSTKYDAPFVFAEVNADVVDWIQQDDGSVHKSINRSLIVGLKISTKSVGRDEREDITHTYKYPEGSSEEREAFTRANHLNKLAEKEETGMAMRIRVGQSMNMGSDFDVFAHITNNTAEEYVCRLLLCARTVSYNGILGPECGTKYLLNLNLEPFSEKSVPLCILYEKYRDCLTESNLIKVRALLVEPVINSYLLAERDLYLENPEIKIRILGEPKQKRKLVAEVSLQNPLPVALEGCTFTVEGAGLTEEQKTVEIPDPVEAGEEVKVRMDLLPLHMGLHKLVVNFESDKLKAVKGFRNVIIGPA
Description: Inhibition of rec. human tissue transglutaminase (fluorescence, Abz-APE(CAD-DNP)QEA-OH). It counts as biochemical. The settings on record: Table 2, TG2 inhibitors. Here is the method:
Method for Inhibition Studies of Rec. Human Tissue Transglutaminase (rhTG2)
250 μg lyophilized His-tagged recombinant human tissue transglutaminase (His6-rhTG2, Zedira product 1022) is reconstituted in H2O (volume depends on original volume before lyophilization) resulting in a buffer containing 10 mM Tris-HCl, 150 mM NaCl, 1 mM EDTA, 5 mM DTT, 189 mg/ml maltodextrin, pH=8.1. The rhTG2 stock solution is diluted in buffer (50 mM Tris-HCl, 7.5 mM CaCl2, 150 mM NaCl, pH=7.4) to give a working solution of 100 U/ml (based on the amine-incorporation activity measured using T036, described below).
A 10 mM inhibitor stock solution is prepared in DMSO, and from this stock solution a serial 1:2-fold dilution series is prepared, also in DMSO. Each of these initial dilutions is subsequently diluted 1:50-fold with buffer (50 mM Tris-HCl, 7.5 mM CaCl2, 150 mM NaCl, pH=7.4) to yield the final working dilutions containing 2% (v/v) DMSO. 15 μl of inhibitor working dilution are added per well of a 96 well microtiter plate. As control, 15 μl of a 2% (v/v) DMSO solution prepared using the buffer mentioned above are added per well.
600 μl of His6-rhTG2 working solution are added to 11.4 ml assay buffer (50 mM Iris-HCl, 7.5 mM CaCl2, 150 mM NaCl, 5 mM DTI, 13.4 mM glycine methylester, 50 μM Abz-APE(CAD-DNP)QEA-OH, (Zedira product A102; patent No.: EP 1781807B1), pH=7.4). From this master-mix solution, 285 μl are added per well containing the inhibitor. Increase in fluorescence is measured using λex=313 nm and λem=418 nm at 37° C. for 20 min. A slope of the increase in fluorescence between 10 and 20 min is calculated for determination of the IC50 value (inhibitor concentration at which 50% of the initial TG2 activity is blocked).
Analysis of enzymatic activity is performed by calculation of the slope of an increase in fluorescence intensity. IC50 values are calculated by plotting the enzymatic activity (as percentage from control containing 2% DMSO instead of inhibitor) against the inhibitor concentration. IC50 is defined as the inhibitor concentration blocking 50%) of initial enzyme activity.
Take `CCC(CC)CNC(=O)Cn1ccc(C)c(NC(=O)[C@H](CCC(=O)C(=O)NC)NC(=O)c2cncn2C)c1=O` [Compound E42, (S)—N1-(1-(2-(2-ethylbutylamino)-2-oxoethyl)-4-methyl-2-oxo-1,2-dihydropyridin-3-yl)-N6-methyl-2-(1-methyl-1H-imidazole-5-carboxamido)-5-oxohexanediamide]: the pIC50 is 5.80. With `CCC(CC)CNC(=O)Cn1cccc(NC(=O)[C@H](CCC(=O)C(=O)NCS(=O)(=O)c2ccc(C)cc2)NC(=O)c2cncn2C)c1=O` [Compound E41, (S)—N1-(1-(2-(2-ethylbutylamino)-2-oxoethyl)-2-oxo-1,2-dihydropyridin-3-yl)-2-(1-methyl-1H-imidazole-5-carboxamido)-5-oxo-N6-(tosylmethyl)hexanediamide], the pIC50 was 5.84. For `CNC(=O)C(=O)CC[C@H](NC(=O)c1cncn1C)C(=O)Nc1cccn(CC(=O)OCCOC)c1=O` [Compound E53, (S)-2-methoxyethyl 2-(3-(2-(1-methyl-1H-imidazole-5-carboxamido)-6-(methylamino)-5,6-dioxohexanamido)-2-oxopyridin-1(2H)-yl)acetate] the value was 6.12; for `CCC(CC)CNC(=O)Cn1cccc(NC(=O)[C@H](CCC(=O)C(N)=O)NC(=O)c2cnccn2)c1=O` [Compound E11, (S)—N1-(1-(2-(2-ethylbutylamino)-2-oxoethyl)-2-oxo-1,2-dihydropyridin-3-yl)-5-oxo-2-(pyrazine-2-carboxamido)hexanediamide], 6.35. On to `CCC(CC)CNC(=O)Cn1cccc(NC(=O)[C@H](CCC(=O)C(N)=O)NC(=O)c2scnc2C)c1=O` [Compound E14, (S)—N1-(1-(2-(2-ethylbutylamino)-2-oxoethyl)-2-oxo-1,2-dihydropyridin-3-yl)-2-(4-methylthiazole-5-carboxamido)-5-oxohexanediamide], for which the pIC50 was 6.60.

On to `CCC(CC)CNC(=O)Cn1cc(C)cc(NC(=O)[C@H](CCC(=O)C(=O)NC)NC(=O)c2cncn2C)c1=O` [Compound E43, (S)—N1-(1-(2-(2-ethylbutylamino)-2-oxoethyl)-5-methyl-2-oxo-1,2-dihydropyridin-yl)-N6-methyl-2-(1-methyl-1H-imidazole-5-carboxamido)-5-oxohexanediamide], for which the pIC50 is 7.22. In the case of `CCC(CC)CNC(=O)Cn1cccc(NC(=O)[C@H](CCC(=O)C(=O)NC)NC(=O)c2cnc3ccccc3n2)c1=O` [Compound E65, (S)—N1-(1-(2-(2-ethylbutylamino)-2-oxoethyl)-2-oxo-1,2-dihydropyridin-3-yl)-N6-methyl-5-oxo-2-(quinoxaline-2-carboxamido)hexanediamide], the pIC50 is 7.19.

On to `CNC(=O)C(=O)CC[C@H](NC(=O)OC(C)C)C(=O)N[C@@H](CCCNC(=N)N)C(=O)NC(C)(C)C(=O)N1C[C@H](O)C[C@H]1C(N)=O` [Compound E84, isopropyl (S)-1-((S)-1-(1-((2S,4R)-2-carbamoyl-4-hydroxypyrrolidin-1-yl)-2-methyl-1-oxopropan-2-ylamino)-5-guanidino-1-oxopentan-2-ylamino)-6-(methylamino)-1,5,6-trioxohexan-2-ylcarbamate] (Isopropoxycarbonyl-[Nle(5,6-dioxo,6-NHMe)]R[Aib][Hyp]-NH2), for which the pIC50 was 6.02. Regarding `CCC(CC)CNC(=O)Cn1cccc(NC(=O)[C@H](CCC(=O)C(=O)c2cn(C)cn2)NC(=O)c2cncn2C)c1=O` [Compound E81, (S)—N-(1-(1-(2-(2-ethylbutylamino)-2-oxoethyl)-2-oxo-1,2-dihydropyridin-3-ylamino)-6-(1-methyl-1H-imidazol-4-yl)-1,5,6-trioxohexan-2-yl)-1-methyl-1H-imidazole-5-carboxamide], the pIC50 was 6.13. For `CNC(=O)C(=O)CC[C@H](NC(=O)c1cncn1C)C(=O)Nc1cccn(CC(=O)NCOC)c1=O` [Compound E54, (S)—N1-(1-(2-(methoxymethylamino)-2-oxoethyl)-2-oxo-1,2-dihydropyridin-3-yl)-N6-methyl-2-(1-methyl-1H-imidazole-5-carboxamido)-5-oxohexanediamide], the pIC50 is 6.26. `CNC(=O)C(=O)CC[C@H](NC(=O)CC1CC(C)(C)OC1=O)C(=O)N[C@@H](Cc1c[nH]cn1)C(=O)N[C@@H](Cc1ccc(O)cc1)C(=O)N1Cc2ccccc2C[C@H]1C(N)=O` (stereo partly drawn) [Compound E82, (2S)-N1-((S)-1-((S)-1-((S)-3-carbamoyl-3,4-dihydroisoquinolin-2(1H)-yl)-3-(4-hydroxy-phenyl)-1-oxopropan-2-ylamino)-3-(1H-imidazol-4-yl)-1-oxopropan-2-yl)-2-(2-(5,5-dimethyl-2-oxotetrahydrofuran-3-yl)acetamido)-N6-methyl-5-oxohexanediamide] (X8-[Nle(5,6-dioxo,6-NHMe)]HY[Tic]-NH2): the pIC50 was 5.87. Take `CCCCCNC(=O)C(=O)CC[C@H](NC(=O)c1cncn1C)C(=O)Nc1cccn(CC(=O)NCC(CC)CC)c1=O` [Compound E18, (S)—N1-(1-(2-(2-ethylbutylamino)-2-oxoethyl)-2-oxo-1,2-dihydropyridin-3-yl)-2-(1-methyl-1H-imidazole-5-carboxamido)-5-oxo-N6-pentylnexanediamide]: the pIC50 was 6.90. In the case of `CCC(CC)CNC(=O)Cn1c(C)ccc(NC(=O)[C@H](CCC(=O)C(=O)NC)NC(=O)c2cncn2C)c1=O` [Compound E44, (S)—N1-(1-(2-(2-ethylbutylamino)-2-oxoethyl)-6-methyl-2-oxo-1,2-dihydropyridin-3-yl)-N6-methyl-2-(1-methyl-1H-imidazole-5-carboxamido)-5-oxohexanediamide], the pIC50 was 7.10.

`CCC(CC)CNC(=O)Cn1cc(C(F)(F)F)cc(NC(=O)[C@H](CCC(=O)C(=O)NC)NC(=O)c2cncn2C)c1=O` [Compound E47, (S)—N1-(1-(2-(2-ethylbutylamino)-2-oxoethyl)-2-oxo-5-(trifluoromethyl)-1,2-dihydropyridin-3-yl)-N6-methyl-2-(1-methyl-1H-imidazole-5-carboxamido)-5-oxohexanediamide]: the pIC50 is 7.10. Turning to `CCC(CC)CNC(=O)Cn1cccc(NC(=O)[C@H](CCC(=O)C(=O)NC)NS(=O)(=O)c2c(Cl)nc3sccn23)c1=O` [Compound E67, (S)-2-(6-chloroimidazo[2,1-b]thiazole-5-sulfonamido)-N1-(1-(2-(2-ethylbutylamino)-2-oxoethyl)-2-oxo-1,2-dihydropyridin-3-yl)-N6-methyl-5-oxohexanediamide], the pIC50 was 6.82. For `CCC(CC)CNC(=O)Cn1cccc(NC(=O)[C@H](CCC(=O)C(=O)NC)NS(=O)(=O)c2sc(C)nc2C)c1=O` [Compound E66, (S)-2-(2,4-dimethylthiazole-5-sulfonamido)-N1-(1-(2-(2-ethylbutylamino)-2-oxoethyl)-26 oxo-1,2-dihydropyridin-3-yl)-N6-methyl-5-oxohexanediamide] the value was 6.92; for `CCC(CC)CNC(=O)Cn1cccc(NC(=O)[C@H](CCC(=O)C(=O)Nc2cncs2)NC(=O)c2cncn2C)c1=O` [Compound E40, (S)—N1-(1-(2-(2-ethylbutylamino)-2-oxoethyl)-2-oxo-1,2-dihydropyridin-3-yl)-2-(1-methyl-1H-imidazole-5-carboxamido)-5-oxo-N6-(thiazol-5-yl)hexanediamide], 6.30.
